Assay [1] concerns the target D(1A) dopamine receptor (Homo sapiens, UniProt P21728). Briefly: DRUGMATRIX: Dopamine D1 radioligand binding (ligand: [3H] SCH-23390). It is filed as cell membranes, CHO, Membrane. Particulars: cho; Not Active = under 50% inhibition at 10 µM.
Assay [2] has as its target D(3) dopamine receptor (Homo sapiens, UniProt P35462). Nature of the assay: DRUGMATRIX: Dopamine D3 radioligand binding (ligand: [3H] Spiperone). It is filed as cell membranes, CHO, Membrane.
Assay [3] concerns the target Beta-2 adrenergic receptor (Homo sapiens, UniProt P07550). Briefly: DRUGMATRIX: Adrenergic beta2 radioligand binding (ligand: [3H] CGP-12177). Type of assay: cell membranes, CHO, Membrane. The settings on record: Not Active = under 50% inhibition at 10 µM.
Assay [4] addresses Aldo-keto reductase family 1 member B1 (Rattus norvegicus, UniProt P07943). It is filed as tissue-based, Lens of camera-type eye.
Assay [5] addresses T1, Endothelin-1 receptor (Homo sapiens, UniProt P25101).
T1 sequence (P25101 whole entry): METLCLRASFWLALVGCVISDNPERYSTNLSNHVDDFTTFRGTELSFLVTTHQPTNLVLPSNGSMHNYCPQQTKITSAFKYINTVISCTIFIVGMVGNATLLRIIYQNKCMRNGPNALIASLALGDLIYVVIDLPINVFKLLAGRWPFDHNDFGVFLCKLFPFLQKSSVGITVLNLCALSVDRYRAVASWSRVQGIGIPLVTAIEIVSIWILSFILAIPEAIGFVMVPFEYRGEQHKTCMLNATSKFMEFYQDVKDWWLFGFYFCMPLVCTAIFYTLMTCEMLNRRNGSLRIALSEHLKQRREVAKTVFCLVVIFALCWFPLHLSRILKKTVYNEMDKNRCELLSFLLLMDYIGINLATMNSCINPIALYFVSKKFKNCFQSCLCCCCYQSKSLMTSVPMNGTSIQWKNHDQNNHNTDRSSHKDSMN
It is filed as cell membranes, Membrane. The settings on record: cho-k1.

The structures appear in SMILES notation.

For orientation: IC50 means the midpoint of a concentration-inhibition curve. One may read the Ki as a measure of affinity in units of concentration, obtained from inhibition or displacement.

Chain of Beta-2 adrenergic receptor (P07550 whole entry): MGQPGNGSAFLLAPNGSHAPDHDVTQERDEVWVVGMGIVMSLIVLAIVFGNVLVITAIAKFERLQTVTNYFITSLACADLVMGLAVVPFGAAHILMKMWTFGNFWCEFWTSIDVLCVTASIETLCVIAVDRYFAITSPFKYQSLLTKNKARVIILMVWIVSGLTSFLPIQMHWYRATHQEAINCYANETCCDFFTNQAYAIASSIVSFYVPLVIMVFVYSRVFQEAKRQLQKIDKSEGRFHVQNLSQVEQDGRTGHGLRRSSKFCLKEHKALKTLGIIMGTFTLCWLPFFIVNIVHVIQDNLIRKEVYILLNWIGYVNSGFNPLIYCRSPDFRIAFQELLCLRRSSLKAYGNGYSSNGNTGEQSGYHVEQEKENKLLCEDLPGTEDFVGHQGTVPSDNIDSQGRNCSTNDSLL
Chain of D(1A) dopamine receptor (P21728 whole entry): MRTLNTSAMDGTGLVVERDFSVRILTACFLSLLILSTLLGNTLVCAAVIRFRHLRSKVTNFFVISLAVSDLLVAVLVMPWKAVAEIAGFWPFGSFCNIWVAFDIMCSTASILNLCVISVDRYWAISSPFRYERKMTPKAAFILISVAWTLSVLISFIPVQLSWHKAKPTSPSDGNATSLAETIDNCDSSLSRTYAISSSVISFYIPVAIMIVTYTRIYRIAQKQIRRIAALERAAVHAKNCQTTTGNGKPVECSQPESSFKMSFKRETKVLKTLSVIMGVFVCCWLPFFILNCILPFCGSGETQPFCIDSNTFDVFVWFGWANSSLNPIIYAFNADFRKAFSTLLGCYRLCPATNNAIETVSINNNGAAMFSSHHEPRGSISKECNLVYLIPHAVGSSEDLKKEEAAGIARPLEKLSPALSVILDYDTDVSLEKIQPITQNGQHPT
Chain of D(3) dopamine receptor (P35462 whole entry): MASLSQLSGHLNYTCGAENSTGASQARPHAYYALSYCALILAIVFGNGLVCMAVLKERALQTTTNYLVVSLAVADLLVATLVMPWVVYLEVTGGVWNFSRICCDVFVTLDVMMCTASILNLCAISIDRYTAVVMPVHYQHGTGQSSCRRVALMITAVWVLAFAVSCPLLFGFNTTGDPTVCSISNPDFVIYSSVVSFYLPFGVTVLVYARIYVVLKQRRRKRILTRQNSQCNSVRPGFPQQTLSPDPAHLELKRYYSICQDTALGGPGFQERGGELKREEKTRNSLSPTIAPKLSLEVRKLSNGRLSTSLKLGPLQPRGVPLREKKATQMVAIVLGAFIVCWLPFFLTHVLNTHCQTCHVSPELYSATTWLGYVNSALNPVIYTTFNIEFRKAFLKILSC

In the case of `O=C(c1ccccc1C(F)(F)F)N1CCC(Cc2ccccc2)CC1`, the IC50 result in assay [1], in assay [2] (cho), in assay [3] (cho), in assay [4] and in assay [5] was “Not Active” each time.

As to `O=C/C=C/c1ccccc1`, the half-maximal inhibitory concentration (IC50) result in assay [1], in assay [2] (cho), in assay [3] (cho), in assay [4] and in assay [5] was “Not Active” each time.

On to `Nc1ccc2c3c(cccc13)C(=O)NC2=O`, for which the IC50 entry in assay [1], in assay [2] (cho), in assay [3] (cho), in assay [4] and in assay [5] was “Not Active” each time.

Take `COc1ccc(C(=O)N2CCCC2=O)cc1`: the IC50 entry in assay [1], in assay [2] (cho), in assay [3] (cho), in assay [4] and in assay [5] was “Not Active” throughout.

Turning to `O=c1cnn([C@@H]2O[C@H](CO)[C@@H](O)[C@H]2O)c(=O)[nH]1` [6-AZAURIDINE], the IC50 entry in assay [1], in assay [2] (cho), in assay [3] (cho), in assay [4] and in assay [5] was “Not Active” each time.

Take `CC[C@H](C)[C@H]1O[C@]2(C=C[C@@H]1C)C[C@@H]1C[C@@H](C/C=C(\C)[C@@H](O[C@H]3C[C@H](OC)[C@@H](O[C@H]4C[C@H](OC)[C@@H](O)[C@H](C)O4)[C@H](C)O3)[C@@H](C)/C=C/C=C3\CO[C@@H]4[C@H](O)C(C)=C[C@@H](C(=O)O1)[C@]34O)O2.CO[C@H]1C[C@H](O[C@H]2[C@H](C)O[C@@H](O[C@@H]3/C(C)=C/C[C@@H]4C[C@@H](C[C@]5(C=C[C@H](C)[C@@H](C(C)C)O5)O4)OC(=O)[C@@H]4C=C(C)[C@@H](O)[C@H]5OC/C(=C\C=C\[C@@H]3C)[C@]54O)C[C@@H]2OC)O[C@@H](C)[C@@H]1O` [ABAMECTIN]: the IC50 result in assay [2] (cho), in assay [3] (cho), in assay [4] and in assay [5] was “Not Active” in each case.

In the case of `NCCCC(O)(P(=O)(O)O)P(=O)(O)O` [ALENDRONIC ACID], the half-maximal inhibitory concentration (IC50) result in assay [1], in assay [2] (cho), in assay [3] (cho), in assay [4] and in assay [5] was “Not Active” each time.

As for `Cc1nnc2n1-c1ccc(Cl)cc1C(c1ccccc1)=NC2` [ALPRAZOLAM], the IC50 entry in assay [1], in assay [2] (cho), in assay [3] (cho), in assay [4] and in assay [5] was “Not Active” in each case.

As for `Cn1c(=O)c2[nH]cnc2n(C)c1=O.Cn1c(=O)c2[nH]cnc2n(C)c1=O.NCCN` [AMINOPHYLLINE], the IC50 result in assay [1], in assay [2] (cho), in assay [3] (cho), in assay [4] and in assay [5] was “Not Active” in each case.

For `CCC1(CCC(C)C)C(=O)NC(=O)NC1=O` [AMOBARBITAL], the IC50 result in assay [1], in assay [2] (cho), in assay [3] (cho), in assay [4] and in assay [5] was “Not Active” each time.

For the compound `CC1(C)S[C@@H]2[C@H](NC(=O)[C@H](N)c3ccccc3)C(=O)N2[C@H]1C(=O)O` [AMPICILLIN], the IC50 entry in assay [1], in assay [2] (cho), in assay [3] (cho), in assay [4] and in assay [5] was “Not Active” throughout.

Take `COc1ccc(C2C(=O)c3ccccc3C2=O)cc1` [ANISINDIONE]: the IC50 entry in assay [1], in assay [2] (cho), in assay [3] (cho), in assay [4] and in assay [5] was “Not Active” in each case.

As to `O=C1O[C@H]([C@@H](O)CO)C(O)=C1O` [ASCORBIC ACID], the IC50 result in assay [1], in assay [2] (cho), in assay [3] (cho), in assay [4] and in assay [5] was “Not Active” each time.

`CN1[C@@H]2CC[C@H]1C[C@@H](OC(=O)C(CO)c1ccccc1)C2` (stereo partly drawn) [ATROPINE]: the IC50 result in assay [1], in assay [2] (cho), in assay [3] (cho), in assay [4] and in assay [5] was “Not Active” each time.

Turning to `CC(C(=O)O)c1ccc2oc(-c3ccc(Cl)cc3)nc2c1` (stereo not drawn) [BENOXAPROFEN], the 50% inhibitory concentration (IC50) result in assay [1], in assay [2] (cho), in assay [3] (cho), in assay [4] and in assay [5] was “Not Active” in each case.

Regarding `COc1ccc2cc3[n+](cc2c1OC)CCc1cc2c(cc1-3)OCO2.[Cl-]` [BERBERINE CHLORIDE], the IC50 entry in assay [2] (cho), in assay [3] (cho), in assay [4] and in assay [5] was “Not Active” throughout.

On to `O=C(O)CCNC(=O)c1ccccc1` [BETAMIPRON], for which the IC50 entry in assay [1], in assay [2] (cho), in assay [3] (cho), in assay [4] and in assay [5] was “Not Active” each time.

Turning to `CC(=O)Oc1ccc(C(c2ccc(OC(C)=O)cc2)c2ccccn2)cc1` [BISACODYL], the IC50 entry in assay [1], in assay [2] (cho), in assay [3] (cho), in assay [4] and in assay [5] was “Not Active” throughout.

As to `Cc1cc2c(OCC(CNC(C)(C)C)OC(=O)c3ccccc3)cccc2[nH]1` (stereo not drawn) [BOPINDOLOL], the IC50 entry is “Not Active” in assay [1]; “Not Active” in assay [2] (cho); 20 nM in assay [3] (read-out: IC50); “Not Active” in assay [4]; “Not Active” in assay [5]. In addition, in assay [3] (read-out: Ki), the Ki is 14 nM.

For `Brc1c(NC2=NCCN2)ccc2nccnc12` [BRIMONIDINE], the IC50 entry in assay [1], in assay [2] (cho), in assay [3] (cho), in assay [4] and in assay [5] was “Not Active” each time.

For the compound `CN(C)[C@@H]1C(O)=C(C(N)=O)C(=O)[C@@]2(O)C(O)=C3C(=O)c4c(O)ccc(Cl)c4[C@@](C)(O)[C@H]3C[C@@H]12` [CHLORTETRACYCLINE], the IC50 result in assay [1], in assay [2] (cho), in assay [3] (cho), in assay [4] and in assay [5] was “Not Active” in each case.

Turning to `CN/C(=N\CCSCc1nc[nH]c1C)NC#N` [CIMETIDINE], the IC50 entry in assay [1], in assay [2] (cho), in assay [3] (cho), in assay [4] and in assay [5] was “Not Active” throughout.

On to `COc1cc(N)c(Cl)cc1C(=O)NC1CCN(CCCOc2ccc(F)cc2)CC1OC` (stereo not drawn) [CISAPRIDE], for which the IC50 result is “Not Active” in assay [1]; 144 nM in assay [2] (read-out: IC50); “Not Active” in assay [3] (cho); “Not Active” in assay [4]; “Not Active” in assay [5]. Besides, the inhibition constant (Ki) in assay [2] (read-out: Ki) was 49 nM.

`CCC(=O)O[C@]1(C(=O)CCl)[C@@H](C)C[C@H]2[C@@H]3CCC4=CC(=O)C=C[C@]4(C)[C@@]3(F)[C@@H](O)C[C@@]21C` [CLOBETASOL PROPIONATE]: the IC50 entry in assay [1], in assay [2] (cho), in assay [3] (cho), in assay [4] and in assay [5] was “Not Active” in each case.

For the compound `O=C1CN=C(c2ccccc2Cl)c2cc([N+](=O)[O-])ccc2N1` [CLONAZEPAM], the IC50 entry in assay [1], in assay [2] (cho), in assay [3] (cho), in assay [4] and in assay [5] was “Not Active” in each case.

With `Nc1ccn([C@@H]2O[C@H](CO)[C@@H](O)[C@@H]2O)c(=O)n1` [CYTARABINE], the IC50 result in assay [1], in assay [2] (cho), in assay [3] (cho), in assay [4] and in assay [5] was “Not Active” throughout.

In the case of `C[C@@H]1C[C@H]2[C@@H]3CCC4=CC(=O)C=C[C@]4(C)[C@@]3(F)[C@@H](O)C[C@]2(C)[C@H]1C(=O)CO` [DESOXIMETASONE], the IC50 entry in assay [1], in assay [2] (cho), in assay [3] (cho), in assay [4] and in assay [5] was “Not Active” throughout.

With `C[C@@H]1C[C@H]2[C@@H]3CCC4=CC(=O)C=C[C@]4(C)[C@@]3(F)[C@@H](O)C[C@]2(C)[C@@]1(O)C(=O)CO` [DEXAMETHASONE], the IC50 entry in assay [1], in assay [2] (cho), in assay [3] (cho), in assay [4] and in assay [5] was “Not Active” in each case.

On to `CC(C)NCC(O)COc1cccc2[nH]ccc12` (stereo not drawn) [PINDOLOL], for which the IC50 entry in assay [1], in assay [2] (cho), in assay [4] and in assay [5] was “Not Active” in each case.

`CCCNCC(O)COc1ccccc1C(=O)CCc1ccccc1` (stereo not drawn) [PROPAFENONE]: the IC50 result in assay [1], in assay [2] (cho), in assay [4] and in assay [5] was “Not Active” in each case.

The record behind these values is ChEMBL document CHEMBL1909046, “DrugMatrix in vitro pharmacology data”.
